# Measured values reported in ChEMBL document CHEMBL1129193, “Isosteres of nucleoside triphosphates” (Bioorg Med Chem Lett, 1996).
# pEC50, pIC50: −log10 of the molar value.
# What was measured:
# C8166 [1] = assay: Compound was evaluated for anti-HIV activity against HIV-1 infected C8166 cell lines; assay type: functional, cell-based; conditions: Homo sapiens
# CCRF-CEM [2] = assay: Compound was evaluated for anti-HIV activity against HIV-1 infected CEM/0 cell lines.; assay type: functional, cell-based; conditions: Homo sapiens
# CCRF-CEM [3] = assay: Compound was evaluated for anti-HIV activity against HIV-2 infected CEM/0 cell lines.; assay type: functional, cell-based; conditions: Homo sapiens
# [4] = biological target: Human immunodeficiency virus type 1 reverse transcriptase (Human immunodeficiency virus 1, UniProt Q72547); assay: Inhibition of HIV-1 reverse transcriptase.
# C8166 [5] = assay: Concentration of compound required to reduce viability of C8166 cells by 50%.; assay type: functional; conditions: Homo sapiens
# CCRF-CEM [6] = assay: Concentration of compound required to reduce viability of CEM/0 cells by 50%.; assay type: functional; conditions: Homo sapiens
# CEM-TK(-) = assay: Compound was evaluated for anti-HIV activity against HIV-2 infected CEM/TK- cell lines.; conditions: Homo sapiens
# Homo sapiens = organism: Homo sapiens; assay: Compound was evaluated for anti-HIV activity against HIV-2 infected CEM/TK- cell lines.; assay type: functional, organism-based
Compound,pEC50 (C8166 [1]),pEC50 (CCRF-CEM [2]),pEC50 (CCRF-CEM [3]),pIC50 [4],CC50 (C8166 [5]) [µM],CC50 (CCRF-CEM [6]) [µM],pEC50 (CEM-TK(-)),pEC50 (Homo sapiens)
Cc1cn(C2C=CC(COC(=O)CC(O)(CC(=O)OCc3ccccc3)C(=O)OCc3ccccc3)O2)c(=O)[nH]c1=O (centres undefined),5.80,5.80,6.26,< 4.00,500,64,4.06,–
Cc1cn(C2C=CC(COC(=O)CC(O)(CC(=O)O)C(=O)O)O2)c(=O)[nH]c1=O (centres undefined),5.49,5.40,5.40,< 4.00,500,209,–,< 3.60
Cc1cn(C2C=CC(CNC(=O)CC(O)(CC(=O)O)C(=O)O)O2)c(=O)[nH]c1=O (centres undefined),< 2.60,–,–,< 4.00,> 2500,–,–,–
C=CCOC(=O)CC(O)(CC(=O)NCC1C=CC(n2cc(C)c(=O)[nH]c2=O)O1)C(=O)OCC=C (centres undefined),3.40,< 3.60,< 3.60,< 4.00,> 1000,> 250,–,–
COC(=O)CC(O)(CC(=O)NCC1C=CC(n2cc(C)c(=O)[nH]c2=O)O1)C(=O)OC (centres undefined),3.00,< 3.60,< 3.60,< 4.00,> 1000,> 250,–,–
COC(=O)CC1(CC(=O)OCC2C=CC(n3cc(C)c(=O)[nH]c3=O)O2)OCOC1=O (centres undefined),6.10,6.02,5.60,< 4.00,400,100,3.96,–
C=CCOC(=O)CC(O)(CC(=O)OCC1C=CC(n2cc(C)c(=O)[nH]c2=O)O1)C(=O)OCC=C (centres undefined),6.00,6.15,6.26,< 4.00,500,69,4.14,–
Cc1cn(C2C=CC(COC(=O)CC3(CC(=O)O)OCOC3=O)O2)c(=O)[nH]c1=O (centres undefined),5.40,5.46,5.35,< 4.00,1000,> 250,< 3.60,–
C=CCOC(=O)CC1(CC(=O)OCC2C=CC(n3cc(C)c(=O)[nH]c3=O)O2)OCOC1=O (centres undefined),6.10,5.70,5.80,< 4.00,500,179,4.11,–
Cc1cn(C2C=CC(COC(=O)CC3(CC(=O)OCc4ccccc4)OCOC3=O)O2)c(=O)[nH]c1=O (centres undefined),5.10,5.87,5.52,–,400,92.8,< 3.60,–
Cc1cn([C@H]2C[C@H](N=[N+]=[N-])[C@@H](CO)O2)c(=O)[nH]c1=O [ZIDOVUDINE],7.80,–,8.22,< 4.00,> 1000,> 250,< 3.60,–
